ChEMBL document CHEMBL1141818, “Annonaceous acetogenins: recent progress” (J Nat Prod, 1999)
Values after ≈ are worked out from the molar mass of the structure shown.

Legend:
[1] = test system: PC-3; experiment: Cytotoxicity against human PC-3 cells; type: functional; conditions: for EC50: Homo sapiens, PC-3, read-out: ED50 (the source's name)
[2] = test system: MIA PaCa-2; experiment: Cytotoxicity against human MIA PaCa2 cells; type: functional; conditions: for EC50: Homo sapiens, MIA PaCa-2, read-out: ED50 (the source's name)
[3] = test system: HT-29; experiment: Cytotoxicity against human HT-29 cells; type: functional; conditions: for EC50: Homo sapiens, HT-29, read-out: ED50 (the source's name)
[4] = Toxicity in brine shrimp; type: organism-based; conditions: artemia, in vivo
[5] = test system: MCF7; experiment: Cytotoxicity against human MCF7 cells; type: functional; conditions: for EC50: Homo sapiens, MCF7, read-out: ED50 (the source's name)
[6] = test system: A549; experiment: Cytotoxicity against human A549 cells; type: functional; conditions: for EC50: Homo sapiens, A549, read-out: ED50 (the source's name)
[7] = test system: A498; experiment: Cytotoxicity against human A-498 cells; type: functional; conditions: Homo sapiens, A498; read-out: ED50 (the source's name)

Compound | EC50 [1] [µg/mL] | EC50 [2] [µg/mL] | EC50 [3] [µg/mL] | LC50 [4] [µg/mL] | EC50 [5] [µg/mL] | EC50 [6] [µg/mL] | EC50 [7] [µg/mL] | ED50 [2] | ED50 [5] | ED50 [6] | ED50 [3] | ED50 [1]
CCCCCCCCCC[C@@H](O)[C@H]1CC[C@H]([C@H]2CC[C@H]([C@H](O)CCCC[C@H](O)CCCCC[C@@H](O)CC3=C[C@H](C)OC3=O)O2)O1 | 0.53 (≈ 0.83 µM) | > 1 | 0.76 (≈ 1.19 µM) | 0.43 (≈ 0.673 µM) | 0.33 (≈ 0.516 µM) | 0.67 (≈ 1.05 µM) | > 1 | – | – | – | – | –
CCCCCCCCCC[C@@H](O)[C@H]1CC[C@H]([C@H]2CC[C@H]([C@H](O)CCCCC[C@@H](O)CCCCC3CC(CC(C)=O)C(=O)O3)O2)O1 (some centres not stated) | 0.16 (≈ 0.25 µM) | – | 1.4 (≈ 2.19 µM) | 0.35 (≈ 0.548 µM) | 0.0012 (≈ 0.00188 µM) | 0.077 (≈ 0.121 µM) | 0.036 (≈ 0.0563 µM) | 1.7 ×10⁻⁴ ug/ml | – | – | – | –
CCCCCCCCCCCC[C@@H](O)[C@H]1CC[C@H]([C@H](O)CCCC(O)C(O)CCCCC[C@@H]2CC(CC(C)=O)C(=O)O2)O1 (some centres not stated) | 1.3 (≈ 2.12 µM) | < 0.01 | < 0.01 | 4.8 (≈ 7.83 µM) | 0.61 (≈ 0.995 µM) | < 0.01 | 0.12 (≈ 0.196 µM) | – | – | – | – | –
CCCCCCCCCCCC[C@@H](O)[C@H]1CC[C@H]([C@H](O)CCCCCC(O)CCCCCCC2=C[C@H](C)OC2=O)O1 (some centres not stated) | 2.7 (≈ 4.65 µM) | 2.9 (≈ 4.99 µM) | 1.7 (≈ 2.93 µM) | 8.9 (≈ 15.3 µM) | 2.2 (≈ 3.79 µM) | 3.9 (≈ 6.71 µM) | 2.2 (≈ 3.79 µM) | – | – | – | – | –
CCCCCCCCCC[C@@H](O)[C@H]1CC[C@H]([C@H](O)CC[C@H](O)[C@@H]2CC[C@@H](CCCCC[C@@H]3CC(CC(C)=O)C(=O)O3)O2)O1 (some centres not stated) | 0.0011 (≈ 0.0018 µM) | > 1 | > 1 | 3.3 (≈ 5.4 µM) | > 1 | 0.21 (≈ 0.344 µM) | 0.21 (≈ 0.344 µM) | – | – | – | – | –
CCCCCCCCCC/C=C\CC[C@@H](O)[C@H]1CC[C@H]([C@H](O)CCCCCC(=O)CCCC[C@@H]2CC(CC(C)=O)C(=O)O2)O1 (some centres not stated) | 0.032 (≈ 0.0515 µM) | 0.22 (≈ 0.354 µM) | > 1 | 0.44 (≈ 0.709 µM) | > 1 | > 1 | > 1 | – | – | – | – | –
CCCCCCCCCCCC[C@@H](O)[C@H]1CC[C@H]([C@H](O)CCCCCC[C@H](O)CCCCCCCC2=C[C@H](C)OC2=O)O1 | 0.17 (≈ 0.279 µM) | – | 0.14 (≈ 0.23 µM) | 0.13 (≈ 0.213 µM) | – | – | 0.15 (≈ 0.246 µM) | 1 ×10⁻⁵ ug/ml | 5.8 ×10⁻⁷ ug/ml | 6.5 ×10⁻⁷ ug/ml | – | –
CCCCCCCCCCCC[C@H](O)[C@@H]1CC[C@H]([C@H](O)CCCCCC(O)CCCCCCC2=C[C@H](C)OC2=O)O1 (some centres not stated) | 2.1 (≈ 3.62 µM) | 1.1 (≈ 1.89 µM) | 1.4 (≈ 2.41 µM) | 6.8 (≈ 11.7 µM) | 1.7 (≈ 2.93 µM) | 2 (≈ 3.44 µM) | 1.8 (≈ 3.1 µM) | – | – | – | – | –
CCCCCCCCCC[C@@H](O)[C@H]1CC[C@@H]([C@H]2CC[C@H]([C@H](O)CCCC[C@H](O)CCCCC[C@@H](O)CC3=C[C@H](C)OC3=O)O2)O1 | 0.38 (≈ 0.595 µM) | 0.2 (≈ 0.313 µM) | 0.14 (≈ 0.219 µM) | – | – | – | 0.01 (≈ 0.0157 µM) | – | 1.9 ×10⁻⁸ ug/ml | 1 ×10⁻⁸ ug/ml | – | –
CCCCCCCCCCCC[C@@H](O)[C@H]1CC[C@H]([C@H](O)CCCCC[C@@H](O)CCCCCC[C@@H]2CC(CC(C)=O)C(=O)O2)O1 (mixture of isomers) | 2.2 | 0.0045 | 1.4 | 2.7 | 1.7 | 1.9 | 1.5 | – | – | – | – | –
CCCCCCCCCCCC[C@@H](O)[C@H]1CC[C@H]([C@H](O)CCCCCC[C@H](O)CCCCC[C@@H]2CC(CC(C)=O)C(=O)O2)O1 (mixture of isomers) | 1 | 0.68 | 0.26 | 0.31 | 3.2 | 2.6 | 1.4 | – | – | – | – | –
CCCCCCCCCC[C@@H](O)[C@H]1CC[C@H]([C@H]2CC[C@H]([C@H](O)CCCCCC(=O)CCCC[C@@H]3CC(CC(C)=O)C(=O)O3)O2)O1 (mixture of isomers) | 1.1 | 1.2 | 0.004 | 0.67 | 0.26 | 0.0057 | 0.46 | – | – | – | – | –
CCCCCCCCCCCCCC[C@@H](O)[C@H]1CC[C@H]([C@H](O)CCCC[C@H](O)CCCCC[C@@H]2CC(CC(C)=O)C(=O)O2)O1 (mixture of isomers) | 0.057 | 0.074 | – | 0.04 | – | 0.014 | 0.12 | – | 7.6 ×10⁻⁴ ug/ml | – | 7.4 ×10⁻⁴ ug/ml | –
CCCCCCCCCCCC/C=C\CC[C@@H](O)[C@H]1CC[C@H]([C@H](O)CC[C@H](O)CCCCC[C@H]2CC(CC(C)=O)C(=O)O2)O1 (mixture of isomers) | 1.5 | 0.045 | 2.9 | < 0.3 | 3.7 | 1.8 | 2.2 | – | – | – | – | –
CCCCCCCCCC[C@H](O)[C@@H](O)CCCC[C@H]1CC[C@H]([C@H]2CC[C@H]([C@H](O)CCCCC[C@@H](O)CC3=C[C@H](C)OC3=O)O2)O1 (stereo in doubt; 21) [GLACIN B] | – | – | – | 0.27 (≈ 0.423 µM) | – | – | 2.6 (≈ 4.07 µM) | 1.5 ×10⁻² ug/ml | 5.2 ×10⁻² ug/ml | 1.3 µg/mL (≈ 2.03 µM) | 8.7 ×10⁻² ug/ml | 5.6 ×10⁻² ug/ml
CCCCCCCCCCCCCC/C=C\[C@@H](O)C[C@H](O)[C@@H]1CC[C@@H](CCCCC[C@@H](O)CC2=C[C@H](C)OC2=O)O1 [GONIOTRIONIN] | 0.36 (≈ 0.622 µM) | 0.0054 (≈ 0.00933 µM) | 0.34 (≈ 0.587 µM) | – | – | 0.0077 (≈ 0.0133 µM) | 0.002 (≈ 0.00345 µM) | – | 5.3 ×10⁻⁶ ug/ml | – | – | –
CCCCCCCCCCCC[C@H](O)[C@H]1CC[C@H]([C@H](O)CCCCCC(=O)CCCC[C@@H](O)CC2=C[C@H](C)OC2=O)O1 [MOSIN B] | > 1 | – | > 1 | – | > 1 | 0.94 (≈ 1.58 µM) | > 1 | 1.2 ×10⁻⁴ ug/ml | – | – | – | –
CCCCCCCCCCCC[C@H](O)[C@@H]1CC[C@H]([C@H](O)CCCCCC(=O)CCCC[C@@H](O)CC2=C[C@H](C)OC2=O)O1 [MOSIN C] | > 1 | – | > 1 | – | > 1 | 0.6 (≈ 1.01 µM) | > 1 | 1.2 ×10⁻⁴ ug/ml | – | – | – | –
CCCCCCCCCCCC[C@@H](O)[C@H]1CC[C@H]([C@H]2CCC[C@@H]([C@@H](O)CCCCCCC[C@@H](O)CC3=C[C@H](C)OC3=O)O2)O1 [MUCONIN] | 0.58 (≈ 0.931 µM) | – | 0.39 (≈ 0.626 µM) | – | – | 0.0045 (≈ 0.00722 µM) | 0.18 (≈ 0.289 µM) | 5.4 ×10⁻⁴ ug/ml | 2.4 ×10⁻⁴ ug/ml | – | – | –
CCCCCCCCCCCCCCCCC[C@@H](O)[C@H]1C[C@H](O)[C@H]([C@H]2CC[C@H]([C@H](O)CCCCCC3=C[C@H](C)OC3=O)O2)O1 [MUCOXIN] | 0.31 (≈ 0.498 µM) | 0.33 (≈ 0.53 µM) | 0.61 (≈ 0.979 µM) | – | 0.0037 (≈ 0.00594 µM) | 0.036 (≈ 0.0578 µM) | 0.84 (≈ 1.35 µM) | – | – | – | – | –
CCCCCCCCCCCC[C@@H](O)[C@H]1CC[C@@H]([C@@H]2CC[C@@H](CCCCCCC[C@@H](O)CC3=C[C@H](C)OC3=O)O2)O1 [ROLLIDECIN C] | 0.29 (≈ 0.501 µM) | 0.11 (≈ 0.19 µM) | 0.063 (≈ 0.109 µM) | – | 1.1 (≈ 1.9 µM) | 1.3 (≈ 2.25 µM) | 1.4 (≈ 2.42 µM) | – | – | – | – | –
CCCCCCCCCCCC[C@@H](O)[C@H]1CC[C@@H]([C@@H]2CC[C@@H](CCCCCCCCC[C@@H](O)CC3=C[C@H](C)OC3=O)O2)O1 [ROLLIDECIN D] | 1.9 (≈ 3.13 µM) | 1 (≈ 1.65 µM) | 5.4 (≈ 8.9 µM) | – | 5 (≈ 8.24 µM) | 5.9 (≈ 9.72 µM) | 4 (≈ 6.59 µM) | – | – | – | – | –
CCCCCCCCCCCC[C@H](O)[C@H]1CC[C@H]([C@H]2CC[C@H]([C@H](O)CCCCCCCC[C@@H](O)CC3=C[C@H](C)OC3=O)O2)O1 [SQUAMOTACIN] | – | – | – | – | – | – | – | – | – | – | – | 1 ×10⁻⁸ ug/ml
